Values after ≈ are worked out from the molar mass of the structure shown.
Tests used:
CCD-841 cells = assay: MTT cytotoxicity assay, CCD-841 normal colon cells; format: cell-based; conditions: Homo sapiens, CCD-841 non cancerous cells
Procedure: (§1) Cytotoxicity property of Dis against HCT-116 and CCD-841 cells were measured by MTT assay as described by Mossman[77]. Briefly, cells were treated with different concentration of Dis and 5-Fu (positive control) with serial dilution factor of 2 for 8 concentrations in 96 well-plate for different time points (24 h, 48 h and 72 h). Subsequently at the end of each time point 20 µl of MTT (5 mg/ml, Affymetrix,Cleveland, OH, USA) were added to each well followed by 4 h incubation. The solutions were aspirated after 4 h and 100 µl of DMSO were added to each well. Absorbance for each well was read at 570 nm as measured by using microplate reader (Tecan Infinite multimode, Männedorf, Switzerland). Cytotoxicity (cell death) was measured by using the following formula: Celldeath(%)=sampleOD−controlOD/controlOD100
(§2) This assay was performed in triplicates in three independent experiments. The cytotoxicity property of Dis was presented as IC50 value.

HT-29 cells = assay: MTT cytotoxicity assay, HT-29; format: cell-based, human; conditions: for IC50: Homo sapiens, MTT
Procedure: [Worded in the source for another cell line; this cell line is reported under the same test.] as §1, §2

HCT-116 cells = assay: MTT cytotoxicity assay, HCT-116; format: cell-based, human; conditions: for IC50: Homo sapiens, MTT
Procedure: as §1, §2

For `O=c1[nH]cc(F)c(=O)[nH]1` [5-FU, 5-Fluorouracil, reference compound], the IC50 (CCD-841 cells; 24 h) was 197 ± 14.7 µg/mL (≈ 1510 µM), the IC50 (CCD-841 cells; 48 h) was 28.3 ± 0.67 µg/mL (≈ 218 µM) and the IC50 (CCD-841 cells; 72 h) was 14.5 ± 0.68 µg/mL (≈ 111 µM). The IC50 (HT-29 cells; HT-29, 24 h) was 10.3 ± 2.7 µg/mL (≈ 79 µM), the IC50 (HT-29 cells; HT-29, 48 h) was 10.5 ± 1.3 µg/mL (≈ 80.6 µM) and the IC50 (HT-29 cells; HT-29, 72 h) was 2.24 ± 0.53 µg/mL (≈ 17.2 µM). The “Selectivity Index (SI)” value (HT-29 cells; IC50 CCD-841 / IC50 HT-29, 24 h) was 19.15, the “Selectivity Index (SI)” value (HT-29 cells; IC50 CCD-841 / IC50 HT-29, 48 h) was 2.7 and the “Selectivity Index (SI)” value (HT-29 cells; IC50 CCD-841 / IC50 HT-29, 72 h) was 6.46. For the same molecule, the IC50 (HCT-116 cells; HCT-116, 24 h) was 5.43 ± 0.48 µg/mL (≈ 41.7 µM), the IC50 (HCT-116 cells; HCT-116, 48 h) was 3.07 ± 0.34 µg/mL (≈ 23.6 µM) and the IC50 (HCT-116 cells; HCT-116, 72 h) was 1.47 ± 0.4 µg/mL (≈ 11.3 µM). For the same molecule, the “Selectivity Index (SI)” value (HCT-116 cells; IC50 CCD-841 / IC50 HCT-116, 24 h) was 36.27, the “Selectivity Index (SI)” value (HCT-116 cells; IC50 CCD-841 / IC50 HCT-116, 48 h) was 9.23 and the “Selectivity Index (SI)” value (HCT-116 cells; IC50 CCD-841 / IC50 HCT-116, 72 h) was 9.85.

Reference: publication PMC6435658, “Investigation into the Molecular Mechanisms underlying the Anti-proliferative and Anti-tumorigenesis activities of Diosmetin against HCT-116 Human Colorectal Cancer” (Scientific Reports, 2019)
